Experimental data taken from patent US9669050B2, “Composition for prevention or treatment of hyperlipidemia, fatty liver or obesity” (BENEBIOSIS CO., LTD., priority 2008, dated 2017).
Entries after “also recorded” stand apart in the source; their conditions may differ.

Tests used:
[1] = system: high-fat diet C56BL/6 male mice; experiment: Body weight change and food intake of high-fat diet mice; assay type: in vivo, mouse; conditions: for Weight increase / Final weight: peritoneal injection every day; for Comparison of body weight increase, SL vs. ND: compared to normal diet mice
Procedure: 4 week-old C56BL/6 male mice were purchased from Dooyeul Biotech (Korea). Water was allowed freely and commercially available pellet feed (Dooyeul Biotech, Korea) was given for a week. The mice were grouped into six groups (six per each group) as follows: ND, normal diet group (normal group); HD, high-fat (60% fat) diet [purchased from Research Diets (New Brunswick, USA)] group (control group); and HD+SL (0.1 mg/kg), HD+SL (0.5 mg/kg), HD+SL (1.0 mg/kg) and HD+SL (5.0 mg/kg), high-fat diet groups treated with sialyllactose (SL, Sigma). Sialyllactose or PBS was administered every day by peritoneal injection. The mice were kept in cages for 50 days and sacrificed after fasting for 12 hours. Food intake and body weight change were measured every 7 days. 3′-Sialyllactose (3′-N-acetylneuraminyl-D-lactose, 3′-sialyl-D-lactose or α-NeuNAc-(2→3)-β-D-Gal-(1→4)-D-Glc) and 6′-sialyllactose (6′-N-acetylneuraminyl-lactose, 6′-sialyl-D-lactose or α-NeuNAc-(2→6)-β-D-Gal-(1→4)-D-Glc) were purchased from Sigma-Aldrich.

[2] = system: high-fat diet C56BL/6 male mice; experiment: Serum lipid and leptin levels in high-fat diet mice; assay type: in vivo, mouse; conditions: for Leptin / HDL-cholesterol / HDL/TC / LDL/TC / Total cholesterol (TC) / Triglyceride / LDL-cholesterol: peritoneal injection every day, 50 days; for Leptin: ELISA; for HDL-cholesterol / HDL/TC / LDL/TC / Total cholesterol (TC) / Triglyceride / LDL-cholesterol: serum; for LDL-cholesterol: calculated by Equation 1
Procedure: (§1) Blood was taken from the liver of the C56BL/6 male mice. The blood was coagulated, centrifuged for 15 minutes at 13,000 rpm, and kept at −20° C. until serum analysis. High-density lipoprotein (HDL)-cholesterol level was measured using an HDL kit (YD Diagnostics, Korea). Triglyceride (TG) was analyzed using a TG kit (YD Diagnostics) based on enzymologic method. Total cholesterol was analyzed using a cholesterol E kit (YD Diagnostics). Low-density lipoprotein (LDL)-cholesterol level was calculated from triglyceride level, total cholesterol level and HDL-cholesterol level according to Equation 1: LDL-cholesterol=total cholesterol−{[…]} Equation 1
Leptin level was measured using a mouse leptin ELISA kit (Millipore) and a rat leptin ELISA kit (Millipore).

high-fat diet SD rats [3] = experiment: Body weight change, food and water intake of high-fat diet rats; assay type: in vivo, rat; conditions: orally administered every day, 7 weeks
Procedure: 4 week-old Sprague-Dawley (SD) rats were purchased from Dooyeul Biotech (Korea). Water was allowed freely and commercially available pellet feed (Dooyeul Biotech, Korea) was given for a week. The rats were grouped into four groups (six per each group) as follows: ND, normal diet group (normal group); HD, high-fat (60% fat) diet [purchased from Research Diets (New Brunswick, USA)] group (control group); and HD+SL (1 mg/kg) and HD+SL (5 mg/kg), high-fat diet groups treated with SL (Sigma). 3′-SL or deionized water (DW) was orally administered every day. The mice were kept in cages for 7 weeks and sacrificed after fasting for 12 hours. Food intake and body weight change were measured every 5 days.

high-fat diet SD rats [4] = experiment: Serum lipid levels in high-fat diet rats; assay type: in vivo, rat; conditions: HD + SL 1 mg/kg
Procedure: as §1
Blood was taken from the liver of the SD rats, and lipid levels were analyzed in the same manner as the experiment with the C57BL/6 male mice.

[5] = system: high-fat diet C56BL/6 male mice; experiment: Improvement of fatty liver in high-fat diet mice (dissection, observation); assay type: in vivo, mouse; conditions: peritoneally administered, FIG. 4
Text: In order to investigate 3′-SL's effect of improving fatty liver, high-fat diet C56BL/6 male mice were dissected and the liver and other organs were observed.

high-fat diet SD rats [6] = experiment: Improvement of fatty liver in high-fat diet rats (dissection, observation); assay type: in vivo, rat; conditions: orally administered, FIGS. 8a and 8b
Text: In order to investigate 3′-SL's effect of improving fatty liver, high-fat diet SD rats were dissected and the liver and other organs were observed.

high-fat diet SD rats [7] = experiment: Subcutaneous, perirenal and retroperitoneal fat weight in high-fat diet rats; assay type: in vivo, rat; conditions: orally administered for 6 weeks, FIG. 7
Procedure: As described above, 4 week-old SD rats were treated with high-fat diet and 3′-SL for 6 weeks. Then, subcutaneous fat, perirenal fat and retroperitoneal fat were isolated from the rats and weighed.

[8] = high-fat diet + SL 5 mg/kg peritoneally injected, 50 days

CC(=O)N[C@H]1[C@H]([C@H](O)[C@H](O)CO)O[C@@](OC[C@H]2O[C@@H](O[C@H]3[C@H](O)[C@@H](O)[C@H](O)O[C@@H]3CO)[C@H](O)[C@@H](O)[C@H]2O)(C(=O)O)C[C@@H]1O [6′-SL, α-NeuNAc-(2→6)-β-D-Gal-(1→4)-D-Glc]
Weight increase ([1]; HD + SL 0.1 mg/kg): 7.82 ± 1.44(*) g/50 day
Final weight ([1]; HD + SL 0.1 mg/kg, 50 days): 26.82 ± 0.92 g
Weight increase ([1]; HD + SL 0.5 mg/kg): 7.68 ± 2.82(*) g/50 day
Final weight ([1]; HD + SL 0.5 mg/kg, 50 days): 25.74 ± 1.93 g
Weight increase ([1]; HD + SL 1.0 mg/kg): 7.99 ± 1.15(*) g/50 day
Final weight ([1]; HD + SL 1.0 mg/kg, 50 days): 25.62 ± 1.33 g
Weight increase ([1]; HD + SL 5.0 mg/kg): 6.88 ± 1.80(*) g/50 day
Final weight ([1]; HD + SL 5.0 mg/kg, 50 days): 25.92 ± 0.95 g
body weight decrease compared to normal diet mice [1, 8]: 4.7%
Comparison of body weight increase, SL vs. ND [1, 8]: −4.7%
effect on body weight increase (in words) ([1]; high-fat diet mice, peritoneal injection, 50 days): significant decrease in body weight increase; also recorded: more effective in body weight loss than 3′-SL; also recorded: less body weight increase than the normal diet mice
Leptin ([2]; HD + SL 0.1 mg/kg): 11.50 ± 3.72 ng/mL
HDL-cholesterol ([2]; HD + SL 0.1 mg/kg): 70.71 ± 14.15 mg/dL
HDL/TC ([2]; HD + SL 0.1 mg/kg): 0.55 ± 0.08(*)
LDL/TC ([2]; HD + SL 0.1 mg/kg): 0.33 ± 0.07(*)
Total cholesterol (TC) ([2]; HD + SL 0.1 mg/kg): 126.68 ± 10.7 mg/dL
Triglyceride ([2]; HD + SL 0.1 mg/kg): 74.48 ± 3.77 mg/dL
LDL-cholesterol ([2]; HD + SL 0.1 mg/kg): 41.07 ± 6.34 mg/dL
Leptin ([2]; HD + SL 0.5 mg/kg): 6.71 ± 0.93 ng/mL
HDL-cholesterol ([2]; HD + SL 0.5 mg/kg): 76.33 ± 10.53 mg/dL
HDL/TC ([2]; HD + SL 0.5 mg/kg): 0.58 ± 0.05(*)
LDL/TC ([2]; HD + SL 0.5 mg/kg): 0.31 ± 0.05(*)
Total cholesterol (TC) ([2]; HD + SL 0.5 mg/kg): 130.54 ± 8.10 mg/dL
Triglyceride ([2]; HD + SL 0.5 mg/kg): 71.05 ± 5.88 mg/dL
LDL-cholesterol ([2]; HD + SL 0.5 mg/kg): 40.00 ± 4.25 mg/dL
Leptin ([2]; HD + SL 1.0 mg/kg): 5.15 ± 1.61 ng/mL
HDL-cholesterol ([2]; HD + SL 1.0 mg/kg): 57.44 ± 0.87 mg/dL
HDL/TC ([2]; HD + SL 1.0 mg/kg): 0.53 ± 0.03(*)
LDL/TC ([2]; HD + SL 1.0 mg/kg): 0.36 ± 0.02(*)
Total cholesterol (TC) ([2]; HD + SL 1.0 mg/kg): 109.14 ± 9.86 mg/dL
Triglyceride ([2]; HD + SL 1.0 mg/kg): 60.69 ± 7.69 mg/dL
LDL-cholesterol ([2]; HD + SL 1.0 mg/kg): 39.56 ± 8.53 mg/dL
Leptin ([2]; HD + SL 5.0 mg/kg): 6.47 ± 1.64 ng/mL
HDL-cholesterol ([2]; HD + SL 5.0 mg/kg): 62.73 ± 8.58 mg/dL
HDL/TC ([2]; HD + SL 5.0 mg/kg): 0.54 ± 0.05(*)
LDL/TC ([2]; HD + SL 5.0 mg/kg): 0.35 ± 0.10(*)
Total cholesterol (TC) ([2]; HD + SL 5.0 mg/kg): 115.36 ± 14.9 mg/dL
Triglyceride ([2]; HD + SL 5.0 mg/kg): 61.34 ± 3.84 mg/dL
LDL-cholesterol ([2]; HD + SL 5.0 mg/kg): 40.36 ± 2.69 mg/dL
effect on LDL-cholesterol, total cholesterol, triglyceride and leptin levels (in words) ([2]; high-fat diet mice, compared to the high-fat diet group): much better effect of reducing LDL-cholesterol, total cholesterol, triglyceride and leptin levels than 3′-SL

CC(=O)N[C@H]1[C@H]([C@H](O)[C@H](O)CO)O[C@@](O[C@H]2[C@@H](O)[C@@H](CO)O[C@@H](O[C@H]3[C@H](O)[C@@H](O)C(O)O[C@@H]3CO)[C@@H]2O)(C(=O)O)C[C@@H]1O (stereo partly drawn) [3′-SL, α-NeuNAc-(2→3)-β-D-Gal-(1→4)-D-Glc]
Final weight (high-fat diet SD rats [3]; HD + SL 1.0 mg/kg): 454.17 ± 10.37 g
Weight increase (high-fat diet SD rats [3]; HD + SL 1.0 mg/kg): 4.05 ± 0.16 g/day
Final weight (high-fat diet SD rats [3]; HD + SL 5.0 mg/kg): 443.33 ± 19.56 g
Weight increase (high-fat diet SD rats [3]; HD + SL 5.0 mg/kg): 3.66 ± 0.32 g/day
Weight increase ([1]; HD + SL 0.1 mg/kg): 8.94 ± 0.43 g/50 day
Final weight ([1]; HD + SL 0.1 mg/kg, 50 days): 31.34 ± 1.15 g
Weight increase ([1]; HD + SL 0.5 mg/kg): 7.52 ± 0.74 g/50 day
Final weight ([1]; HD + SL 0.5 mg/kg, 50 days): 30.42 ± 0.51 g
Weight increase ([1]; HD + SL 1.0 mg/kg): 5.60 ± 0.77 g/50 day
Final weight ([1]; HD + SL 1.0 mg/kg, 50 days): 29.00 ± 0.82 g
Weight increase ([1]; HD + SL 5.0 mg/kg): 6.68 ± 0.28 g/50 day
Final weight ([1]; HD + SL 5.0 mg/kg, 50 days): 28.68 ± 0.95 g
Comparison of body weight increase, SL vs. ND [1, 8]: 51.5%
Leptin ([2]; HD + SL 0.1 mg/kg): 66.59 ± 43.57 ng/mL
HDL-cholesterol ([2]; HD + SL 0.1 mg/kg): 53.27 ± 5.08 mg/dL
HDL/TC ([2]; HD + SL 0.1 mg/kg): 0.40 ± 0.04
LDL/TC ([2]; HD + SL 0.1 mg/kg): 0.43 ± 0.02
Total cholesterol (TC) ([2]; HD + SL 0.1 mg/kg): 135.05 ± 13.58 mg/dL
Triglyceride ([2]; HD + SL 0.1 mg/kg): 166.78 ± 6.60 mg/dL
LDL-cholesterol ([2]; HD + SL 0.1 mg/kg): 58.16 ± 3.74 mg/dL
Leptin ([2]; HD + SL 0.5 mg/kg): 38.73 ± 5.58 ng/mL
HDL-cholesterol ([2]; HD + SL 0.5 mg/kg): 55.74 ± 3.18 mg/dL
HDL/TC ([2]; HD + SL 0.5 mg/kg): 0.51 ± 0.02
LDL/TC ([2]; HD + SL 0.5 mg/kg): 0.45 ± 0.12
Total cholesterol (TC) ([2]; HD + SL 0.5 mg/kg): 108.25 ± 3.06 mg/dL
Triglyceride ([2]; HD + SL 0.5 mg/kg): 112.99 ± 8.16 mg/dL
LDL-cholesterol ([2]; HD + SL 0.5 mg/kg): 48.43 ± 13.91 mg/dL
Leptin ([2]; HD + SL 1.0 mg/kg): 19.29 ± 14.24 ng/mL
HDL-cholesterol ([2]; HD + SL 1.0 mg/kg): 49.29 ± 3.40 mg/dL
HDL/TC ([2]; HD + SL 1.0 mg/kg): 0.39 ± 0.01
LDL/TC ([2]; HD + SL 1.0 mg/kg): 0.37 ± 0.12
Total cholesterol (TC) ([2]; HD + SL 1.0 mg/kg): 126.30 ± 7.75 mg/dL
Triglyceride ([2]; HD + SL 1.0 mg/kg): 94.28 ± 5.66 mg/dL
LDL-cholesterol ([2]; HD + SL 1.0 mg/kg): 46.03 ± 13.79 mg/dL
Leptin ([2]; HD + SL 5.0 mg/kg): 6.64 ± 2.93 ng/mL
HDL-cholesterol ([2]; HD + SL 5.0 mg/kg): 48.97 ± 1.62 mg/dL
HDL/TC ([2]; HD + SL 5.0 mg/kg): 0.44 ± 0.05
LDL/TC ([2]; HD + SL 5.0 mg/kg): 0.27 ± 0.04
Total cholesterol (TC) ([2]; HD + SL 5.0 mg/kg): 112.97 ± 12.54 mg/dL
Triglyceride ([2]; HD + SL 5.0 mg/kg): 89.78 ± 4.31 mg/dL
LDL-cholesterol ([2]; HD + SL 5.0 mg/kg): 29.91 ± 2.69 mg/dL
effect on serum lipid levels (in words) (high-fat diet SD rats [4]; compared to the control group): higher HDL-cholesterol level and lower LDL-cholesterol, total cholesterol and triglyceride levels as compared to the control group
HDL-cholesterol (high-fat diet SD rats [4]; oral, serum): 88.73 ± 1.32
HDL/total cholesterol (high-fat diet SD rats [4]; oral, serum): 0.52 ± 0.04
LDL/total cholesterol (high-fat diet SD rats [4]; oral, serum): 0.34 ± 0.03
Total cholesterol (high-fat diet SD rats [4]; oral, serum): 171.44 ± 12.8
Triglyceride (high-fat diet SD rats [4]; oral, serum): 149.00 ± 3.86
LDL-cholesterol (high-fat diet SD rats [4]; oral, serum, calculated by Equation 1): 57.91 ± 1.39
fatty liver, fat accumulation in liver and other organs (in words) [5]: fat accumulation was not observed in the liver or other organs
fatty liver, fat accumulation in liver and other organs (in words) (high-fat diet SD rats [6]): fat accumulation reduced markedly
subcutaneous, perirenal and retroperitoneal fat weight (in words) (high-fat diet SD rats [7]): decreased subcutaneous fat, perirenal fat and retroperitoneal fat in a dose-dependent manner
